This is an account of results in paper PMC8540642, “Antineoplastic Activity of Rhus trilobata Nutt. (Anacardiaceae) against Ovarian Cancer and Identification of Active Metabolites in This Pathology” (Plants, 2021).

One data set deals with CHO-K1 cells. The data set can be described thus: MTT cell viability, dose-response curves 24 h. In kind it is cell-based. Conditions: MTT, 24 h; for IC50 / pIC50: Cricetulus griseus, CHO-K1, 24 h, read-out: IC50 (half-maximal inhibitory concentration), CHO-K1; for pIC50: value in brackets. The method, then:
(§1) Cultures (2 × 10^4 cells/well) were seeded with 200 μL of supplemented medium (Sigma®) in 96-well plates (Corning®, Corning, NY, USA) and incubated for 24 h. Cell treatments were 5-200 μg/mL of samples/controls for 24 h. At the end of the treatments, we added MTT (5 mg/mL, Sigma®) for 4 h of incubation, and optical density was measured at λ = 590 nm in a VariosKan® Flash (Thermo-Scientific®, Waltham, MA, USA). The half-maximal inhibitory concentration (IC50) was determined.

Another data set has as its system CACO-2 cells. The data set can be described thus: MTT cell viability, dose-response curves 24 h. In kind it is cell-based. Conditions: Homo sapiens, Caco-2, MTT, 24 h, read-out: IC50 (half-maximal inhibitory concentration), CACO-2; for pIC50: value in brackets. The method, then: as §1
The test system of a further data set is OVCAR-3 cells. In words: MTT cell viability, dose-response curves 24 h. The class given is cell-based. Conditions: Homo sapiens, OVCAR-3, MTT, 24 h, read-out: IC50 (half-maximal inhibitory concentration), OVCAR-3; for pIC50: value in brackets. The method, then:
as §1

In another data set the test system is BEAS-2B cells. The data set can be described thus: MTT cell viability, dose-response curves 24 h. In kind it is cell-based. As to conditions: MTT; for pIC50: value in brackets. How it is done:
as §1

The test system of data set [1] is SKOV-3 cells. In words: MTT cell viability, dose-response curves 24 h. The class given is cell-based, human. Conditions: Homo sapiens, SK-OV-3, MTT, 24 h, read-out: IC50 (half-maximal inhibitory concentration), SKOV-3; for pIC50: value in brackets. The method, then:
as §1

Data set [2] deals with ovarian cancer tumoral lesions. The arrangement: method as in PMID 32276584. As to conditions: 50 mg/kg, peritumoral route; cited from earlier work.
Another data set relates to KB cell. The arrangement: method as in PMID 4437313. Conditions: Ga isolated from RHTR leaves; cited from earlier work.
The test system of another data set is MCF-7. The arrangement: method as in PMID 12781329, PMID 18790750. As to conditions: MCF-7, 50 μM, G1 phase; cited from earlier work.
Data set [3] concerns SKOV-3 cells xenotransplant. In words: Antineoplastic activity in Nu/Nu mice with subcutaneous SKOV-3 xenotransplant. The arrangement: key to Vascularity of tumor lesion / Fibrosis of tumor lesion: +, present; +++, abundant. In kind it is in vivo. How it is done: Nu/Nu mice were used to determine the antineoplastic activity of RHTR (20 female, 25 ± 5 g weight, and 6-8 weeks old). Mice were maintained in sterile conditions (25 ± 1 °C, and 12 h light/dark cycles) and ad libitum access to food (LabDiet®, Richmond, IN, USA) or water in UPEAL (CINVESTAV-IPN). The Institutional Ethics Committee approved all procedures (No. 184-16), following the Official Mexican Regulations: NOM-062-ZOO-1999 [31] and the International Guidelines (see Appendix A, NC3Rs ARRIVE Guidelines Checklist). Mice were xenotransplanted subcutaneously on the right flank with 5 × 10^6 SKOV-3 cells. The development of tumor lesions was monitored for 28 days (≈50 mm^3). Four weeks post-xenotransplantation, rodents were treated daily with 200 mg/kg/i.p. of AE, AF02, or controls for another 28 days. Finally, each week, we evaluated (i) bodyweight with an electronic bascule (CS200, Ohaus®, Parsippany, NJ, USA) and (ii) tumoral lesions with a Vernier caliper (Truper®, Jilotepec, Edo. de México, M.X.). At the end of treatments, mice were anesthetized with 0.1575 mg/250 μL 1× PBS (v/v, i.p.) of pentobarbital sodium (PiSA®, Guadalajara, Jal., M.X.) for the subsequent analyses (Figure 5).
(§2) Computed axial tomography (CAT) was performed with a Somatom Emotion™ (Siemens™) with animals in supine decubitus, full-body, and craniocaudal directions. The sequences and parameters used in the study were modifications based on the ExtrHR protocol. Ultrasonography (USG) was performed in an ultrasound system (LogiQ™ P7, General Electric-Healthcare®, Chicago, IL, USA), with real-time image, skeletal muscle preset, and Doppler application. Determination of paraclinical and histopathological studies such as hematic biometry, blood chemistry, and pathological lesions in liver, kidneys, and tumor were performed according to the protocol described by Varela-Rodríguez et al..

The nature of data set [4]: Morphometric analysis of liver and kidneys in treated Nu/Nu mice. The class given is in vivo. The method, then:
as §2

Data set [5] in a line: Paraclinical studies (blood chemistry, hematic biometry) and bodyweight in treated Nu/Nu mice. In kind it is in vivo. Conditions: 28 days treatment. How it is done:
Nu/Nu mice were used to determine the antineoplastic activity of RHTR (20 female, 25 ± 5 g weight, and 6-8 weeks old). […] Mice were xenotransplanted subcutaneously on the right flank with 5 × 10^6 SKOV-3 cells. […] Four weeks post-xenotransplantation, rodents were treated daily with 200 mg/kg/i.p. of AE, AF02, or controls for another 28 days. Finally, each week, we evaluated (i) bodyweight with an electronic bascule (CS200, Ohaus®, Parsippany, NJ, USA) and (ii) tumoral lesions with a Vernier caliper (Truper®, Jilotepec, Edo. de México, M.X.).
as §2

In data set [6] the test system is SKOV-3 cells. The data set can be described thus: Apoptosis (ApoTox-Glo Triplex caspase-3/7, ApoAlert DNA fragmentation/TUNEL). The class given is cell-based, human. Conditions: 24 h, vehicle group 2.47% ± 0.4%. The method, then: Cells (2 × 10^4/per well) were cultivated in 96-well black plates (Corning®, Corning, NY, USA) with 100 μL of supplemented medium (Sigma®, St. Louis, MO, USA) and incubated for 24 h. Treatments on adherent cells were conducted at 5-20 μg/mL of samples/controls for 24 h. Then, ApoTox-Glo™ Triplex Assay (Promega®, Madison, WI, USA) was used to determine events of viability (proliferation), cytotoxicity (necrosis), and apoptosis (caspase-3/7 activation). Additionally, apoptosis was confirmed by an ApoAlert™ DNA Fragmentation Assay (Clontech®, Kusatsu, Shiga, J.P.). Both assays were performed according to each manufacturer’s instructions. Finally, optical density was measured in a VariosKan® Flash (Thermo-Scientific®, Waltham, MA, USA).

Setting [7] is: Homo sapiens, BEAS-2B, read-out: IC50 (half-maximal inhibitory concentration), BEAS-2B.

pIC50: −log10 of the molar value. Converted amounts (≈) assume the structure as drawn. Read-outs that look alike come from different tables or passages of the source.

For the compound `O=C(O)c1cc(O)c(O)c(O)c1` [Gallic acid, gallic acid], the IC50 in the data set on CHO-K1 cells is about 150 µg/mL; in the data set with CACO-2 cells it was 25 µg/mL; in the data set with OVCAR-3 cells, 43 µg/mL; in the data set with SKOV-3 cells [1], 50 µg/mL. Further, the pIC50 with CHO-K1 cells is 3.23; with CACO-2 cells, 3.83; in the data set on OVCAR-3 cells, 3.60; in the data set on BEAS-2B cells (setting [7]) it was 3.83; in the data set with SKOV-3 cells [1], 3.53. The “IC50 (half-maximal inhibitory concentration), CHO-K1” value in the data set with CHO-K1 cells was determined as 100 µg/mL (≈ 588 µM). Further, the results for the “IC50 (half-maximal inhibitory concentration), BEAS-2B” value with BEAS-2B cells and in the data set with BEAS-2B cells (listed as Ga) were 25 µg/mL (≈ 147 µM) and ~ 150 μg/mL, respectively. The “inhibition of tumoral lesions (of progression)” value in [2] was 50%. Also, the “IC50, KB cell viability” value with KB cell was 3.1 µg/mL (≈ 18.2 µM).

With `O=C(OC[C@H]1O[C@@H](OC(=O)c2cc(O)c(O)c(O)c2)[C@H](OC(=O)c2cc(O)c(O)c(O)c2)[C@@H](OC(=O)c2cc(O)c(O)c(O)c2)[C@@H]1OC(=O)c1cc(O)c(O)c(O)c1)c1cc(O)c(O)c(O)c1` [Compound 8, 1,2,3,4,6-pentakis-O-galloyl-β-D-glucose], in the data set on MCF-7, the cell cycle effect entry is “cell cycle arrest”.

Take `O=c1c(O)c(-c2cc(O)c(O)c(O)c2)oc2cc(O)cc(O)c12` [Compound 5, myricetin]: the pIC50 in the data set with CHO-K1 cells was 3.98; in the data set with CACO-2 cells, 3.71; in the data set with OVCAR-3 cells, 3.53; in the data set with BEAS-2B cells (setting [7]) it was 3.70; with SKOV-3 cells [1], 3.28. In addition, the “IC50 (half-maximal inhibitory concentration), CHO-K1” value was 33 µg/mL (≈ 104 µM) in the data set with CHO-K1 cells and ~ 150 μg/mL in the data set with CHO-K1 cells (listed as Myr). Besides, the IC50 in the data set with CACO-2 cells came out at 62 µg/mL; with OVCAR-3 cells it was 94 µg/mL; with SKOV-3 cells [1], 166 µg/mL. Further, the “IC50 (half-maximal inhibitory concentration), BEAS-2B” value is 64 µg/mL (≈ 201 µM) in the data set with BEAS-2B cells and ~ 150 μg/mL in the data set on BEAS-2B cells (listed as Myr). Besides, the “inhibition of tumoral lesions (of progression)” value in [2] is recorded as 50%.

As to `N.N.O=C([O-])C1(C(=O)[O-])CCC1.[Pt+2]` [Carboplatin, carboplatin], in data set [3] (1× PBS +), the “Fibrosis of tumor lesion” value is listed as “+”. Further, the “Vascularity of tumor lesion” value in [3] (1× PBS +++) is on record as “+”. The “Morphology of tumor lesion” value in data set [3] (1× PBS Cystic) was “Solid”. For the same compound, in data set [3] (Figure 3A, vehicle 35.16%), the “necrosis percentage of tumor lesion (imaging)” value came out at 5.19%. The same compound showed a Tumor lesion weight in [3] (end of 28 days treatment, 1× PBS 0.34 ± 0.09) of 0.14 ± 0.06 g. The “Tumor lesion larger diameter” value in data set [3] (end of 28 days treatment, 1× PBS 14.53 ± 2.4) was 3.70 ± 0.26 mm. In data set [3] (end of 28 days treatment, 1× PBS 373.3 ± 18.1), the Tumor volume was 137.3 ± 18.6 * mm^3. This compound yielded a Kidneys weight in data set [4] (1X PBS 0.38 ± 0.042) of 0.40 ± 0.01 g. In data set [4] (1X PBS 1.53 ± 0.14), this compound returned a Liver weight of 1.80 ± 0.10 g. Moreover, in data set [4] (1X PBS 9.34 ± 0.67), the Kidneys larger diameter came out at 11.5 ± 0.7 mm. The Liver larger diameter in [4] (1X PBS 29.65 ± 2.22) is 30.5 ± 2.2 mm. In addition, in data set [5] (1× PBS 0.55 ± 0.30), the “PCT (plateletcrit)” value amounted to 0.55 ± 0.29. Further, the Creatinine in data set [5] (1× PBS 0.65 ± 0.2) was determined as 0.37 ± 0.26 mg/dL. This compound returned a Total bilirubin in [5] (1× PBS 0.67 ± 0.16) of 0.58 ± 0.2 mg/dL. The Albumin in [5] (1× PBS 1.36 ± 0.21) was 1.33 ± 0.29 g/dL. This compound yielded a Protein in data set [5] (1× PBS 4.7 ± 0.56) of 5.1 ± 1.46 g/dL. In addition, in data set [5] (1× PBS 7.92 ± 1.93), the Erythrocytes is recorded as 7.81 ± 0.88 ×10^6/mm^3. In data set [5] (1× PBS 14.4 ± 2.13), this compound returned a Hemoglobin of 13.1 ± 1.61 g/dL. The “ALT (GPT)” value in data set [5] (1× PBS 40.75 ± 14.5) was found to be 64.4 ± 6.87 U/L. Besides, the Hematocrit in [5] (1× PBS 44.52 ± 2.17) is 40.57 ± 4.16%. This compound had a Urea in data set [5] (1× PBS 47.9 ± 7.16) of 59.4 ± 9.99 mg/dL. Further, in [5] (1× PBS 71 ± 10.36), the Alkaline phosphatase came to 66.6 ± 15.6 U/L. The compound also had a Glucose in data set [5] (1× PBS 78.3 ± 16.6) of 107 ± 14.8 mg/dL. The same compound gave a Cholesterol in data set [5] (1× PBS 85.5 ± 13.4) of 108.6 ± 19.4 mg/dL. The Triglycerides in data set [5] (1× PBS 87.6 ± 12.01) was 103.7 ± 12.7 mg/dL. The “AST (GOT)” value in data set [5] (1× PBS 149.8 ± 27.29) was 162.9 ± 8.2 U/L.

Turning to `CC(=O)O[C@H]1C(=O)[C@@]2(C)[C@H]([C@H](OC(=O)c3ccccc3)[C@]3(O)C[C@H](OC(=O)[C@H](O)[C@@H](NC(=O)c4ccccc4)c4ccccc4)C(C)=C1C3(C)C)[C@]1(OC(C)=O)CO[C@@H]1C[C@@H]2O` [Paclitaxel, paclitaxel, reference compound], the IC50 came out at 10 µg/mL in the data set with CHO-K1 cells; 20 µg/mL in the data set on CACO-2 cells; 8 µg/mL in the data set on OVCAR-3 cells; 8 µg/mL with BEAS-2B cells (setting [7]); 7 µg/mL with SKOV-3 cells [1]. The pIC50 is 4.93 in the data set on CHO-K1 cells; 4.63 in the data set on CACO-2 cells; 5.03 in the data set on OVCAR-3 cells; 5.03 in the data set with BEAS-2B cells (setting [7]); 5.09 in the data set with SKOV-3 cells [1]. Moreover, the “apoptosis: caspase-3/7 activity and nuclear DNA-fragmentation” value in the data set on SKOV-3 cells [6] is 46.42% ± 5.0%.
